Results published in patent US5587479A, “Basic derivatives of glutamic acid and aspartic acid as gastrin or cholecystokinin antagonists” (priority 1992, dated 1996).
pIC50: −log10 of the molar value. In brackets after ≈: the same amount, converted by molar mass. Like-named read-outs stand apart in the source and are kept apart here.

Legend:
[1] = biological target: T1, central CCK-B receptors (guinea pig cortical membrane) (Cavia porcellus, UniProt H0VZC5); experiment: Inhibition of binding of (3-H)[N-methyl-N-leucine]CCK-8 to guinea pig cortical membranes (anti-CCK-B)
T1 construct: Cerebral cortices of white male guinea pigs were therefore used; from tissue; host or cells: guinea pig cerebral cortex membranes
T1 sequence (H0VZC5 1-426): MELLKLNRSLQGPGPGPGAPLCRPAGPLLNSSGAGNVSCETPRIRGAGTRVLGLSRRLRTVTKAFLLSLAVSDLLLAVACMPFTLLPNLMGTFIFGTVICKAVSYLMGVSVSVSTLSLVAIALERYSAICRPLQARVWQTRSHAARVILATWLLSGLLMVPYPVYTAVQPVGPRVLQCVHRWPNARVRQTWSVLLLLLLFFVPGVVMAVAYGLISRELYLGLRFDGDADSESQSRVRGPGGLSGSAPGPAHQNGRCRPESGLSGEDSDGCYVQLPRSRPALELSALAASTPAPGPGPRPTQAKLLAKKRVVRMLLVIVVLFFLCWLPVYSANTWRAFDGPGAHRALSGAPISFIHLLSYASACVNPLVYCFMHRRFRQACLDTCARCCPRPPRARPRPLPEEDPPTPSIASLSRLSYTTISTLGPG
Method: Cerebral cortices of white male guinea pigs were therefore used, according to the method mentioned above, so as to obtain a membrane content/ml corresponding to about 300 mcg of proteins/mi. The membranes were incubated together with the radioactive tracer and the compounds under test for 150 minutes at 25° C. After the supernatant liquid had been discarded, the radioactivity associated with the pellet was determined with a liquid scintillator.

guinea-pig ureters = experiment: Antispastic activity in vitro: spontaneous motility of guinea-pig ureters; details: for IC50: Cavia porcellus, five minutes contact, 37° C.
Text: The isotonic contractions were detected by means of a force transducer and recorded. […] A given concentration of the product under test was then introduced into the bath and left in contact with the prepared specimen for five minutes, after which the ureter was washed until its own spontaneous activity was re-established.

mouse = experiment: Anxiolytic activity in the mouse, Black and White Box test; format: in vivo; details: for TOTAL MOV.: five minutes
Method: In order to confirm the hypothesis that the potent activity of some of the compounds of the invention against central CCK-B may be correlated with a possible anxiolytic activity, this potential activity was evaluated in the mouse with the use of the "Black and White Box test". This experimental model, which was carried out according to Costall et al. [Pharm. Biochem. Behav. 32 (1989), 777-785] used a box with dimensions of 45×21×21 (h) cm. divided into two compartments which communicated with each other by means of a 13×5 cm hole. The smaller compartment (1/3 of the total area) had black walls, whereas the larger had transparent walls and was illuminated by a lamp which was placed 20 cm above the box and supplied light at 20 W. Under the floor was an activity meter which registered the movements performed by the animal in the individual compartments. The experiment was started by placing the animal in the centre of the illuminated box; as well at its movements, the time which the animal spent in the dark and in the light and the number of times it moved between the 2 compartments were recorded for five minutes. In general, a control animal tended preferably to stay in the dark compartment where it felt better protected from an unusual enviromental situation which put it in a state of anxiety. In this experimental model ( see the reference cited above), a compound having anxiolytic activity decreased the % of movements into the dark in comparison with the total movements, increased the movements between the two light-dark compartments, and increased the % of the total time time spent in the light. The results obtained are given in Table 5 below in which the activities obtained with the compound 1 (the rectus series ) and its enantiomer 2 (sinister) tested in comparison with diazepam and the CCK-B antagonist L365-260.

[2] = IC50, inhibition of binding of (3-H)[N-methyl-N-leucine]CCK-8 to the guinea pig cortical membrane, 150 minutes at 25° C.
[3] = force of the contractions, read-out: IC50 (force), inhibition of the spontaneous motility of guinea-pig ureters in vitro
[4] = frequency of the contractions, read-out: IC50 (frequency), inhibition of the spontaneous motility of guinea-pig ureters in vitro

**Q.** With `CCCCCN(CCCCC)C(=O)C(CCC(=O)NCCN1CCOCC1)NC(=O)c1ccc(C)c(C)c1` (racemic) [Compound 44, (RS) 1-[4'-(ethylenamino)morpholinyl]-1-oxo-4-[(3,4-dimethylbenzoyl)-amino]-5-(dipentylamino) -5-oxopentane] as the compound, how does the pIC50 [1, 2] read?
**A.** The pIC50 was 4.18.

**Q.** And the “activity on guinea-pig ureters (in words)” value (guinea-pig ureters)?
**A.** The value was “extremely active”.

**Q.** What about the IC50 (guinea-pig ureters; [3]) of the same compound?
**A.** Its IC50 is 5 µg/mL (≈ 9.42 µM).

**Q.** What about the IC50 (guinea-pig ureters; [4]) of the same compound?
**A.** Its IC50 is 4 µg/mL (≈ 7.54 µM).

**Q.** `CCCCCN(CCCOC)C(=O)C(CCC(=O)NCCN1CCOCC1)NC(=O)c1ccc(C)c(C)c1` (stereo not drawn) [Compound 64] was tested. Which IC50 (guinea-pig ureters; [3]) did it give?
**A.** The IC50 was 59 µg/mL (≈ 111 µM).

**Q.** `CCCCCN(CCCCC)C(=O)[C@@H](CCC(=O)NCCN1CCOCC1)NC(=O)c1ccc(C)c(C)c1` [Compound 45] was tested. Which IC50 (guinea-pig ureters; [3]) did it give?
**A.** Its IC50 is 8 µg/mL (≈ 15.1 µM).

**Q.** And the IC50 (guinea-pig ureters; [4])?
**A.** The IC50 was 6 µg/mL (≈ 11.3 µM).

**Q.** What does the source list for `CN(C)CCNC(=O)CC[C@@H](NC(=O)c1cc(Cl)cc(Cl)c1)C(=O)N1CCC2(CCCC2)CC1` [Compound 4]?
**A.** pIC50 [1, 2]: 4.90; IC50 (guinea-pig ureters; [4]): 121 µg/mL (≈ 237 µM)

**Q.** Which “LIGHT TIME (%) TOTAL TIME” value (mouse; 0.01 mg/kg IP) does the source give for `Cc1cccc(NC(=O)N[C@@H]2N=C(c3ccccc3)c3ccccc3N(C)C2=O)c1` [Compound L-365-260, reference compound] here?
**A.** The value was 27.0%.

**Q.** What about the “LIGHT TIME (%) TOTAL TIME: % EFF.VS CONTROL” value (mouse; 0.01 mg/kg IP) of the same compound?
**A.** Its value is 0%.

**Q.** What about the “LIGHT-DARK MOVEMENTS” value (mouse; 0.01 mg/kg IP) of the same compound?
**A.** Its value is 14.2.

**Q.** And the “LIGHT-DARK MOVEMENTS: % EFF. VS CONTROL” value (mouse; 0.01 mg/kg IP)?
**A.** The value was -12%.

**Q.** And the “MOV. DARK (%) TOTAL MOV.” value (mouse; 0.01 mg/kg IP)?
**A.** The value was 57%.

**Q.** What about the “MOV. DARK (%) TOTAL MOV.: % EFF. VS CONTROL” value (mouse; 0.01 mg/kg IP) of the same compound?
**A.** The value was 12%.

**Q.** And the “TOTAL MOV.” value (mouse; 0.01 mg/kg IP)?
**A.** Its value is 417.

**Q.** What about the “LIGHT TIME (%) TOTAL TIME” value (mouse; 0.1 mg/kg IP) of the same compound?
**A.** Its value is 31.8%.

**Q.** And the “LIGHT TIME (%) TOTAL TIME: % EFF.VS CONTROL” value (mouse; 0.1 mg/kg IP)?
**A.** The value was 18%.

**Q.** What about the “LIGHT-DARK MOVEMENTS” value (mouse; 0.1 mg/kg IP) of the same compound?
**A.** Its value is 13.3.

**Q.** What about the “LIGHT-DARK MOVEMENTS: % EFF. VS CONTROL” value (mouse; 0.1 mg/kg IP) of the same compound?
**A.** The value was -18%.

**Q.** And the “MOV. DARK (%) TOTAL MOV.” value (mouse; 0.1 mg/kg IP)?
**A.** The value was 54%.

**Q.** What about the “MOV. DARK (%) TOTAL MOV.: % EFF. VS CONTROL” value (mouse; 0.1 mg/kg IP) of the same compound?
**A.** The value was 18%.

**Q.** What about the “TOTAL MOV.” value (mouse; 0.1 mg/kg IP) of the same compound?
**A.** Its value is 446.

**Q.** And the “anxiolytic activity in the Black and White Box test (in words)” value (mouse; IP)?
**A.** The value was “active at a dose of 0.1 mg/kg but only for the parameter which relates to the increase in the time spent in the light”.

**Q.** How did the IC50 (guinea-pig ureters; [3]) turn out when `Cc1c(-c2ccccc2)oc2c(C(=O)OCCN3CCCCC3)cccc2c1=O` [Flavoxate, reference compound] was run?
**A.** Its IC50 is 29 µg/mL (≈ 74.1 µM).

**Q.** How did the pIC50 [1] turn out when `CSCC[C@H](NC(=O)[C@H](Cc1c[nH]c2ccccc12)NC(=O)CCNC(=O)OC(C)(C)C)C(=O)N[C@@H](CC(=O)O)C(=O)N[C@@H](Cc1ccccc1)C(N)=O` [pentagastrin, reference compound] was run?
**A.** Its pIC50 is 8.52.

**Q.** For `CCCCN(CCCC)C(=O)C(CCC(=O)NCC1CCCN1CC)NC(=O)c1ccc(C)c(C)c1` (stereo not drawn) [Compound 31], which IC50 (guinea-pig ureters; [3]) is on record?
**A.** Its IC50 is 23 µg/mL (≈ 45.9 µM).

**Q.** With `CCCCCN(CCCCC)C(=O)C(CCC(=O)NCCN1CCCCC1)NC(=O)c1ccc(C)c(C)c1` (stereo not drawn) [Compound 55] as the compound, how does the pIC50 [1, 2] read?
**A.** Its pIC50 is < 4.00.

**Q.** What about the IC50 (guinea-pig ureters; [3]) of the same compound?
**A.** The IC50 was 11 µg/mL (≈ 20.8 µM).

**Q.** And the IC50 (guinea-pig ureters; [4])?
**A.** The IC50 was 18 µg/mL (≈ 34 µM).

**Q.** Which IC50 (guinea-pig ureters; [3]) does the source give for `CCCCCN(CCCCC)C(=O)C(CCC(=O)NCCN1CCOCC1)NC(=O)c1ccc(C#N)cc1` (stereo not drawn) [Compound 34] here?
**A.** The IC50 was 12 µg/mL (≈ 22.7 µM).

**Q.** What about the IC50 (guinea-pig ureters; [4]) of the same compound?
**A.** Its IC50 is 12 µg/mL (≈ 22.7 µM).

**Q.** `CCCCCN(CCCCC)C(=O)C(CCC(=O)NCCN(C)C)NC(=O)c1ccc(C)c(C)c1` (stereo not drawn) [Compound 40] was tested. Which IC50 (guinea-pig ureters; [3]) did it give?
**A.** Its IC50 is 27 µg/mL (≈ 55.2 µM).

**Q.** And the IC50 (guinea-pig ureters; [4])?
**A.** The IC50 was 44 µg/mL (≈ 90 µM).

**Q.** What does the source list for `CCCCCN(CCCCC)C(=O)[C@H](CCC(=O)NCCN1CCOCC1)NC(=O)c1ccc(C)c(C)c1` [Compound 46]?
**A.** activity on guinea-pig ureters (in words) (guinea-pig ureters): extremely active; IC50 (guinea-pig ureters; [3]): 1.6 µg/mL (≈ 3.01 µM); IC50 (guinea-pig ureters; [4]): 1.5 µg/mL (≈ 2.83 µM); activity relative to Verapamil (guinea-pig ureters; guinea-pig ureters): about twice; times more active than Papaverine and Flavexate (guinea-pig ureters; guinea-pig ureters): about 20 times

**Q.** How did the IC50 (guinea-pig ureters; [3]) turn out when `CCCCN(CCCC)C(=O)C(CCC(=O)NCCCN(C)C)NC(=O)c1ccc(C)c(C)c1` (stereo not drawn) [Compound 27] was run?
**A.** Its IC50 is 33 µg/mL (≈ 69.5 µM).

**Q.** Which IC50 (guinea-pig ureters; [3]) does the source give for `CCCCCN(CCCCC)C(=O)C(CCC(=O)NCCCN(C)C)NC(=O)c1ccc(C)c(C)c1` (stereo not drawn) [Compound 41] here?
**A.** Its IC50 is 20 µg/mL (≈ 39.8 µM).

**Q.** What about the IC50 (guinea-pig ureters; [4]) of the same compound?
**A.** The IC50 was 28 µg/mL (≈ 55.7 µM).

**Q.** Which IC50 (guinea-pig ureters; [3]) does the source give for `CCCCCN(CCCCC)C(=O)C(CCC(=O)NCCN1CCOCC1)NC(=O)c1ccc(C)cc1` (stereo not drawn) [Compound 33] here?
**A.** Its IC50 is 18 µg/mL (≈ 34.8 µM).

**Q.** And the IC50 (guinea-pig ureters; [4])?
**A.** Its IC50 is 16 µg/mL (≈ 31 µM).

**Q.** With `CCCCCN(CCCCC)C(=O)C(CCC(=O)NCCN1CCOCC1)NC(=O)c1ccccc1` (stereo not drawn) [Compound 32] as the compound, how does the IC50 (guinea-pig ureters; [4]) read?
**A.** Its IC50 is 22 µg/mL (≈ 43.8 µM).
